Values after ≈ are worked out from the molar mass of the structure shown. Like-named read-outs stand apart in the source and are kept apart here.
What was measured:
[1] = test system: P. aeruginosa ATCCBAA-47CR; assay: microbe, parasite or virus in culture; assay type: cell-based; settings: Pseudomonas aeruginosa, ATCCBAA47CR; alone; AmpC constitutively-expressing P. aeruginosa; agar plate dilution; read-out: antibacterial activity (MIC) of PIPC alone
E. coli MSC19503 = assay: microbe, parasite or virus in culture; assay type: cell-based; settings: Escherichia coli, alone, CTX-M-15 (ESBL) and OXA-1 producing E. coli, agar plate dilution, read-out: antibacterial activity (MIC) of PIPC alone
[2] = test system: K. pneumoniae ATCCBAA-1705; assay: microbe, parasite or virus in culture; settings: Klebsiella pneumoniae, ATCCBAA1705, read-out: antibacterial activity (MIC) of PIPC alone
[3] = test system: sensitive tuberculosis (H37Rv); assay: Anti-tubercle bacillus activity, liquid medium dilution MIC; assay type: cell-based; settings: for MIC: Mycobacterium tuberculosis, 168 h, alone, 7 days at 37° C., read-out: antibacterial activity (MIC) of β-lactam agent alone
OXA-2 = target: T1, OXA-2 (Escherichia coli, UniProt P0A1V9); assay: biochemical; parameters: species or system P. aeruginosa
T1 construct: AmpC, TEM-1, KPC-2 or OXA-2 domain excluding signal peptide was amplified with PCR; made in house; host or cells: Escherichia coli BL21 (DE3), pET-28b(+)
T1 sequence (P0A1V9 22-275): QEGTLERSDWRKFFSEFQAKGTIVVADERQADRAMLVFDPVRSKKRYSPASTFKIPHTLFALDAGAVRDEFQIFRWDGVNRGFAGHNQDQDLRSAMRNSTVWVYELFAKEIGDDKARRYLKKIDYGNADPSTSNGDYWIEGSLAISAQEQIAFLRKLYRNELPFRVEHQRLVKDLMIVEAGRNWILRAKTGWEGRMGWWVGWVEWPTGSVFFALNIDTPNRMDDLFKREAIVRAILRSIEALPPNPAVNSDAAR

TEM-1 = target: T2, TEM-1 (Escherichia coli, UniProt P62593); assay: β-Lactamase inhibitory activity (nitrocefin hydrolysis), TEM-1; assay type: biochemical; settings: TEM-1 0.1 nM, 100 μM nitrocefin, pre-incubation 30° C. 10 minutes
T2 construct: AmpC, TEM-1, KPC-2 or OXA-2 domain excluding signal peptide was amplified with PCR; made in house; host or cells: Escherichia coli BL21 (DE3), pET-28b(+)
T2 sequence (P62593 24-286 limits assumed): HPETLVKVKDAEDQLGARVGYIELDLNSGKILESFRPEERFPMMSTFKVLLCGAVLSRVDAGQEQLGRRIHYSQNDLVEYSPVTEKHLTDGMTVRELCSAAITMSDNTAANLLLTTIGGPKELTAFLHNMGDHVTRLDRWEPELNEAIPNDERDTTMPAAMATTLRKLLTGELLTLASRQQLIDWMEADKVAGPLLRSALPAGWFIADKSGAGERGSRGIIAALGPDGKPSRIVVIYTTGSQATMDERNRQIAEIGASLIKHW
In short: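 Scored as letter classes from <0.1 μM (A) through ≥10 μM (E). Nitrocefin breakdown (100 μM final) by E. coli-expressed, signal-peptide-free TEM-1 was followed at 492 nm after 20 min at 30° C. The buffer was 50 mM phosphate pH 7.0, 10 μg/mL BSA, 2.5% DMSO.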

KPC-2 = target: T3, KPC-2 (Klebsiella pneumoniae, UniProt Q9F663); assay: β-Lactamase inhibitory activity (nitrocefin hydrolysis), KPC-2; assay type: biochemical; settings: KPC-2 0.5 nM, 100 μM nitrocefin, pre-incubation 30° C. 10 minutes
T3 construct: AmpC, TEM-1, KPC-2 or OXA-2 domain excluding signal peptide was amplified with PCR; made in house; host or cells: Escherichia coli BL21 (DE3), pET-28b(+)
T3 sequence (Q9F663 25-293, looked up): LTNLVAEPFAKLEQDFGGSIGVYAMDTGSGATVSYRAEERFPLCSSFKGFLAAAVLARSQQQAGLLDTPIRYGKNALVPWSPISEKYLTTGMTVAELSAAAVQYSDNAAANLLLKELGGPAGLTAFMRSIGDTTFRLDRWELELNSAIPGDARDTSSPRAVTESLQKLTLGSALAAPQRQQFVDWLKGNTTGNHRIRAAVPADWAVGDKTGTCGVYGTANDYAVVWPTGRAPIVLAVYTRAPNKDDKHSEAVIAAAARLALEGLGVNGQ

AmpC = target: T4, AmpC (Pseudomonas aeruginosa, UniProt P24735); assay: biochemical
T4 construct: AmpC, TEM-1, KPC-2 or OXA-2 domain excluding signal peptide was amplified with PCR; made in house; host or cells: Escherichia coli BL21 (DE3), pET-28b(+)
T4 sequence (P24735 27-397): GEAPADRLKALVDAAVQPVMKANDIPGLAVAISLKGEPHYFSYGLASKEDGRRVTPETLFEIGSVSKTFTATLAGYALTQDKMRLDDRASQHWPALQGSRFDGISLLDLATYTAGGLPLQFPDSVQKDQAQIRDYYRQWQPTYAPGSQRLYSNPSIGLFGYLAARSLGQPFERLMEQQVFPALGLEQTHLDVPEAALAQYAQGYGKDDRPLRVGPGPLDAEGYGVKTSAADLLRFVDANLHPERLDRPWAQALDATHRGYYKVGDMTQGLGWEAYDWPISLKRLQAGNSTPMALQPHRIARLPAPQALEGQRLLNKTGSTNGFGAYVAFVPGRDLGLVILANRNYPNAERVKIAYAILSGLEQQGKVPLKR

[4] = OXA-2 2 nM, 100 μM nitrocefin, pre-incubation 30° C. 10 minutes, read-out: β-Lactamase inhibitory activity OXA-2 (IC50)

| Structure (SMILES) | IC50 (OXA-2; [4]) [µM] | IC50 (TEM-1) [µM] | IC50 (KPC-2) [µM] | IC50 (AmpC) [µM] | other results |
| --- | --- | --- | --- | --- | --- |
| CCN1CCN(C(=O)N[C@@H](C(=O)N[C@@H]2C(=O)N3[C@@H]2SC(C)(C)[C@@H]3C(=O)O)c2ccccc2)C(=O)C1=O [PIPC, piperacillin] |  |  |  |  | MIC [1]: 64 µg/mL (≈ 124 µM); MIC (E. coli MSC19503): > 128 µg/mL; MIC [2]: > 128 µg/mL |
| C[C@@H](O)[C@H]1C(=O)N2C(C(=O)O)=C(S[C@@H]3CN[C@H](C(=O)N(C)C)C3)[C@H](C)[C@H]12 [MEPM, meropenem, reference compound] |  |  |  |  | MIC [3]: 1 µg/mL (≈ 2.61 µM) |
| C[C@@H](O)[C@H]1C(=O)N2C(C(=O)O)=C(SC3CN(C4=NCCS4)C3)[C@H](C)[C@H]12 [TBPM, tebipenem, reference compound] |  |  |  |  | MIC [3]: 0.5 µg/mL (≈ 1.3 µM) |
| C[C@@H](O)[C@H]1C(=O)N2C(C(=O)[O-])=C(SC3Cn4cnc[n+]4C3)[C@H](C)[C@H]12 (stereo partly shown) [BIPM, biapenem, reference compound] |  |  |  |  | MIC [3]: 1 µg/mL (≈ 2.85 µM) |
| NCCONC(=O)[C@@H]1CC[C@@H]2CN1C(=O)N2OS(=O)(=O)O [Example 59, (2S,5R)—N-(2-Aminoethoxy)-7-oxo-6-(sulfooxy)-1,6-diazabicyclo[3.2.1]octane-2-carboxamide] | 1 to 3 | < 0.1 | 0.1 to 1 | 0.1 to 1 | antibacterial activity (MIC) of ABPC in combinatorial use ([3]; ABPC + 4 μg/mL compound): 2 µg/mL; antibacterial activity (MIC) of AMPC in combinatorial use ([3]; AMPC + 4 μg/mL compound): 2 µg/mL; antibacterial activity (MIC) of BIPM in combinatorial use ([3]; BIPM + 4 μg/mL compound): 1 µg/mL; antibacterial activity (MIC) of MEPM in combinatorial use ([3]; MEPM + 4 μg/mL compound): 0.5 µg/mL; antibacterial activity (MIC) of TBPM in combinatorial use ([3]; TBPM + 4 μg/mL compound): 0.25 µg/mL |
| CC1(C)S[C@@H]2[C@H](NC(=O)[C@H](N)c3ccccc3)C(=O)N2[C@H]1C(=O)O [ABPC, ampicillin, reference compound] |  |  |  |  | MIC [3]: 16 µg/mL (≈ 45.8 µM) |
| O=C(NOCCn1ccnc1S(=O)(=O)O)[C@@H]1CC[C@@H]2CN1C(=O)N2OS(=O)(=O)O [Example 88, Disodium 1-{2-[({[(2S,5R)-7-oxo-6-(sulfonateoxy)-1,6-diazabicyclo[3.2.1]oct-2-yl]carbonyl}amino)oxy]ethyl}-1H-Imidazol-2-sulfonate] | 0.1 to 1 | < 0.1 | 0.1 to 1 | 0.1 to 1 |  |
| O=C(NOC[C@H]1CCCN1)[C@@H]1CC[C@@H]2CN1C(=O)N2OS(=O)(=O)O [Example 77, (2S,5R)-7-Oxo-N-[(2R)-pyrrolidin-2-ylmethoxy]-6-(sulfooxy)-1,6-diazabicyclo[3.2.1]octane-2-carboxamide] | 0.1 to 1 | < 0.1 | 0.1 to 1 | 0.1 to 1 |  |
| O=C(NNC(=O)[C@@H]1CC[C@@H]2CN1C(=O)N2OS(=O)(=O)O)c1cocn1 [Example 44, Sodium (2S,5R)—N′-(1,3-oxazol-4-ylcarbonyl)-7-oxo-6-(sulfooxy)-1,6-diazabicyclo[3.2.1]octane-2-carbohydrazide] |  | < 0.1 | < 0.1 | < 0.1 | IC50 (OXA-2): 1 to 3 µM |
| O=C(NOCC1CCNCC1)[C@@H]1CC[C@@H]2CN1C(=O)N2OS(=O)(=O)O [Example 85, (2S,5R)-7-Oxo-N-(piperidine-4-ylmethoxy)-6-(sulfooxy)-1,6-diazabicyclo[3.2.1]octane-2-carboxamide] | 0.1 to 1 | < 0.1 | 0.1 to 1 | < 0.1 |  |
| NNC(=O)[C@@H]1CC[C@@H]2CN1C(=O)N2OS(=O)(=O)O [Example 17, (2S,5R)-7-Oxo-6-(sulfooxy)-1,6-diazabicyclo[3.2.1]octane-2-carbohydrazide] | 3 to 10 | < 0.1 | 0.1 to 1 | 0.1 to 1 |  |
| CCNCCONC(=O)[C@@H]1CC[C@@H]2CN1C(=O)N2OS(=O)(=O)O [Example 62, (2S,5R)—N-[2-(Ethylamino)ethoxy]-7-oxo-6-(sulfooxy)-1,6-diazabicyclo[3.2.1]octane-2-carboxamide] | 1 to 3 | < 0.1 | 0.1 to 1 | 0.1 to 1 |  |
| Nc1ccc(C(=O)NNC(=O)[C@@H]2CC[C@@H]3CN2C(=O)N3OS(=O)(=O)O)cc1 [Example 31, (2S,5R)—N′-(4-Aminobenzoyl)-7-oxo-6-(sulfooxy)-1,6-diazabicyclo[3.2.1]octane-2-carbohydrazide] | 3 to 10 | < 0.1 | 0.1 to 1 | 0.1 to 1 |  |
| O=C(NOCC(=O)N1CCCNCC1)[C@@H]1CC[C@@H]2CN1C(=O)N2OS(=O)(=O)O [Example 92, (2S,5R)—N-[2-(1,4-Diazepan-1-yl)-2-oxoethoxy]-7-oxo-6-(sulfooxy)-1,6-diazabicyclo[3.2.1]octane-2-carboxamide] | 0.1 to 1 | < 0.1 | 0.1 to 1 | < 0.1 |  |
| CNCCONC(=O)[C@@H]1CC[C@@H]2CN1C(=O)N2OS(=O)(=O)O [Example 61, (2S,5R)—N-[2-(Methylamino)ethoxy]-7-oxo-6-(sulfooxy)-1,6-diazabicyclo[3.2.1]octane-2-carboxamide] | 1 to 3 | < 0.1 | 1 to 3 | 0.1 to 1 |  |
| O=C([C@@H]1CC[C@@H]2CN1C(=O)N2OS(=O)(=O)O)N1CCCO1 [Example 70, Sodium (2S,5R)-2-(1,2-oxazolidin-2-ylcarbonyl)-6-(sulfooxy)-1,6-diazabicyclo[3.2.1]octane-7-one] |  | < 0.1 | 0.1 to 1 | 0.1 to 1 | IC50 (OXA-2): 0.1 to 1 µM |
| O=C(NOC[C@@H]1CCCNC1)[C@@H]1CC[C@@H]2CN1C(=O)N2OS(=O)(=O)O [Example 83, (2S,5R)-7-Oxo-N-[(3R)-piperidine-3-ylmethoxy]-6-(sulfooxy)-1,6-diazabicyclo[3.2.1]octane-2-carboxamide] | 0.1 to 1 | < 0.1 | 0.1 to 1 | < 0.1 |  |
| CC1(C)S[C@@H]2[C@H](NC(=O)[C@H](N)c3ccc(O)cc3)C(=O)N2[C@H]1C(=O)O [AMPC, amoxicillin, reference compound] |  |  |  |  | MIC [3]: 16 µg/mL (≈ 43.8 µM) |
| CN(C)NC(=O)[C@@H]1CC[C@@H]2CN1C(=O)N2OS(=O)(=O)O (racemic) [Example 20, Sodium (2SR,5RS)—N′,N′-dimethyl-7-oxo-6-(sulfooxy)-1,6-diazabicyclo[3.2.1]octane-2-carbohydrazide] |  | 0.1 to 1 | 1 to 3 | 0.1 to 1 | IC50 (OXA-2): 3 to 10 µM |
| C[C@@H](N)CONC(=O)[C@@H]1CC[C@@H]2CN1C(=O)N2OS(=O)(=O)O [Example 67, (2S,5R)—N-{[(2R)-2-Aminopropyl]oxy}-7-oxo-6-(sulfooxy)-1,6-diazabicyclo[3.2.1]octane-2-carboxamide] | 1 to 3 | < 0.1 | 1 to 3 | 0.1 to 1 |  |
| CN(C)CCONC(=O)[C@@H]1CC[C@@H]2CN1C(=O)N2OS(=O)(=O)O [Example 65, (2S,5R)—N-[2-(Dimethylamino)ethoxy]-7-oxo-6-(sulfooxy)-1,6-diazabicyclo[3.2.1]octane-2-carboxamide] | 1 to 3 | 0.1 to 1 | 1 to 3 | 0.1 to 1 |  |
